Results on 16 compounds are retold here after patent US20240072809A1, “ASGPR-BINDING COMPOUNDS FOR THE DEGRADATION OF EXTRACELLULAR PROTEINS” (Avilar Therapeutics, Inc., priority 2020, published 2024).

As usually defined, the Kd is the equilibrium constant for the complex coming apart.

The target in the first test is ASGPR (Homo sapiens (Human), UniProt P07306). Briefly: Affinity to ASGPR measured by surface plasmon resonance (SPR). The class given is binding. The following applies: ASGPR ligands with linker, Table 5; read-out: ASGPR_SPR Binding KD. On the technique in general: In SPR one partner is held on a chip, and binding of the other changes the refractive index at the surface.
Chain of ASGPR (P07306 whole entry): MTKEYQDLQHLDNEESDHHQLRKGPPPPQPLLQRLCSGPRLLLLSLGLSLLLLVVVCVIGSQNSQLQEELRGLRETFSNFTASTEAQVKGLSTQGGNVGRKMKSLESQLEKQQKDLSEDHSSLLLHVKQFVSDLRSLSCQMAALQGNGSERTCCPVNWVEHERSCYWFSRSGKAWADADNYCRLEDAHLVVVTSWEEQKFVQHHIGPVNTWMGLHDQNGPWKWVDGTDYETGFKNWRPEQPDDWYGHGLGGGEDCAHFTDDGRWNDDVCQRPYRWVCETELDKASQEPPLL
Regarding `O=[N+]([O-])c1ccc(NCCOCCOCCOCCOC[C@H]2OC[C@H](Nc3nccc(C(F)(F)F)n3)[C@@H](O)[C@H]2O)c([N+](=O)[O-])c1` [Compound 35, (2R,3R,4R,5S)-2-(13-((2,4-dinitrophenyl)amino)-2,5,8,11-tetraoxatridecyl)-5-((4-(trifluoromethyl)pyrimidin-2-yl)amino)tetrahydro-2H-pyran-3,4-diol], the Kd was less than 100 µM.

The test is the same for the next values; noted with them: ASGPR ligands, Table 2; Biacore 8K, 25° C., steady state fit; read-out: SPR Binding External Calculation: KD.
Turning to `N#Cc1sc(N[C@H]2CO[C@H](CO)[C@H](O)[C@@H]2O)nc1Cl` [Compound A95, 4-chloro-2-(((3S,4R,5R,6R)-4,5-dihydroxy-6-(hydroxymethyl)tetrahydro-2H-pyran-3-yl)amino)thiazole-5-carbonitrile], the dissociation constant (Kd) is less than 100 µM.

Staying with this test, now noted: ASGPR ligands, Table 4; class symbols; read-out: ASGPR_PR Binding KD.
As for `CCOc1cc(Cl)nc(N[C@H]2CO[C@H](CO)[C@H](O)[C@@H]2O)n1` [Compound A367, (2R,3R,4R,5S)-5-((4-chloro-6-ethoxypyrimidin-2-yl)amino)-2-(hydroxymethyl)tetrahydro-2H-pyran-3,4-diol], the Kd was less than 100 µM.

As to `CO[C@H]1O[C@H](CO)[C@H](O)[C@H](O)[C@H]1N` [Compound A91, (2R,3R,4R,5R,6S)-5-amino-2-(hydroxymethyl)-6-methoxytetrahydro-2H-pyran-3,4-diol], the dissociation constant (Kd) was less than 100 µM.

On to `N#Cc1cccc(N[C@H]2CO[C@H](CO)[C@H](O)[C@@H]2O)n1` [Compound A332], for which the Kd was less than 100 µM.

Consider `OC[C@H]1OC[C@H](Nc2cc(Cl)cc(Cl)n2)[C@@H](O)[C@H]1O` [Compound A296], for which the Kd is less than 100 µM.

Take `O=S(=O)(N[C@H]1CO[C@H](CO)[C@H](O)[C@@H]1O)C(F)(F)F` [Compound A344]: the Kd was less than 100 µM.

Regarding `O=C(N[C@H]1CO[C@H](CO)[C@H](O)[C@@H]1O)c1ccccc1` [Compound A342, N-((3S,4R,5R,6R)-4,5-dihydroxy-6-(hydroxymethyl)tetrahydro-2H-pyran-3-yl)benzamide], the Kd is less than 100 µM.

Regarding `OC[C@@]12CO[C@@H](O1)[C@H](Nc1nccc(C(F)(F)F)n1)[C@@H](O)[C@H]2O` [Compound A289], the Kd is less than 100 µM.

Take `OC[C@H]1OC[C@H](Nc2nccc(C(F)F)n2)[C@@H](O)[C@H]1O` [Compound A335]: the Kd was less than 100 µM.

Consider `OC[C@@]12CO[C@@H](O1)[C@H](Nc1nc(Cl)ns1)[C@@H](O)[C@H]2O` [Compound A287, (1S,2R,3R,4R,5S)-4-((3-chloro-1,2,4-thiadiazol-5-yl)amino)-1-(hydroxymethyl)-6,8-dioxabicyclo[3.2.1]octane-2,3-diol], for which the Kd is less than 100 µM.

The same test, now with this note: ASGPR ligands, Table 4; numeric lower bounds; read-out: ASGPR_PR Binding KD.
In the case of `CO[C@@H]1O[C@H](CO)[C@H](O)[C@H](O)[C@H]1Nc1nc(C#N)cs1` [Compound A386], the Kd was more than 20 µM.

Regarding `OC[C@H]1OC=C(C(F)(F)F)[C@@H](O)[C@H]1O` [Compound A221-2, (2R,3R,4R)-2-(hydroxymethyl)-5-(trifluoromethyl)-3,4-dihydro-2H-pyran-3,4-diol], the dissociation constant Kd was more than 200 µM.

Take `OC[C@H]1OC[C@H](Nc2ccc(Cl)nn2)[C@@H](O)[C@H]1O` [Compound A316]: the Kd was more than 20 µM.

`CC(=O)N[C@@H]1CO[C@@H]2COC(C)(C)O[C@@H]2[C@@H]1O` [Compound A127-2c, N-((4aR,7R,8R,8aR)-8-hydroxy-2,2-dimethylhexahydropyrano[3,2-d][1,3]dioxin-7-yl)acetamide]: the Kd was more than 200 µM.

The same test, now with this note: extracellular protein degrading compounds, Table 3; read-out: SPR Binding External Calculation: KD (uM) ASGPR.
On to `CC(C)C[C@H]1NC(=O)[C@@H](CC(=O)[C@@H](NC(=O)[C@H](CCC(N)=O)NC(=O)[C@H](Cc2cnc[nH]2)NC(=O)CCOCCOCCOCCOCCNC(=O)CCCc2cn(CCCC(=O)NCCOCc3cnn(CCOCCOCCOCCO[C@@]45CO[C@@H](O4)[C@H](NC(=O)C(F)(F)F)[C@@H](O)[C@H]5O)c3)nn2)C(C)C)CSSC[C@@H](C(=O)N[C@@H](Cc2ccccc2)C(=O)N[C@@H](CO)C(=O)NC(C=O)[C@@H](C)O)NC(=O)[C@H](C(C)C)NC(=O)[C@@H]2CCCN2C(=O)[C@H](CCCNC(=N)N)NC(=O)CNC(=O)[C@@H](CCCNC(=N)N)NC(=O)[C@H](Cc2ccc(O)cc2)NC(=O)[C@H](CO)CC1=O` (stereo partly shown) [Compound 26], for which the equilibrium dissociation constant (Kd) was less than 100 µM.
